# Measurements: patent US9958436B2, “Determination of cell chirality” (THE TRUSTEES OF COLUMBIA UNIVERSITY IN THE CITY OF NEW YORK, priority 2011, dated 2018)
# Assays:
# [1] = test system: C2C12 cells; test: Cell chirality (alignment) on micropatterned rings, drug treatment, C2C12; type: cell-based, mouse; conditions: for effect on left-right asymmetry / effect on cell chirality: C2C12; for effect on left-right asymmetry: drugs that affect the actomyosin motor, 0.2-10 mM Y-27632, 1-20 mM ML-7, 0.5-10 mM Blebbistatin; for effect on cell chirality: inhibitors of tubulin dynamics at concentrations below those resulting in cell apoptosis; for CCW: counter-clockwise alignment / CW: clockwise alignment / N/S: not significantly biased to CW or CCW: C2C12 on ring patterns, count of rings; for effect on chirality of C2C12 cells: low concentrations of the actin treadmilling inhibitors
# Procedure: (§1) Cells were maintained in tissue flasks with culture media specified in TABLE 2. After reaching 70% confluency, cells were trypsinized and seeded onto protein-coated patterned surfaces. Once the cells attached, extra cells were washed off with fresh medium. At this time drugs were added into the culture medium if necessary. Phase contrast images were taken after overnight incubation at 37° C. and 5% CO2 when cells reached confluency on the ring patterns.
# (§2) To examine the role of actin in left-right (LR) asymmetry, cells were tested with 20-500 nM Latrunculin A, 0.05-1.0 μg/ml Cytochalasin D, and 1-100 nM Jasplakinolide. Latrunculin A inhibits actin polymerization by forming a 1:1 molar complex with G-actin, thereby inhibiting its ability to polymerize into F-actin (M. Coue, S. L. Brenner, I. Spector, E. D. Korn, FEBS Lett 213, 316 (Mar. 23, 1987)). Cytochalasin D inhibits actin polymerization by binding to the growing ends of F-actin chains and thus preventing the attachment and addition of G-actin monomers (J. A. Cooper, J Cell Biol 105, 1473 (October, 1987)). Jasplakinolide is known to bind to and stabilize actin filaments in vitro (M. R. Bubb, I. Spector, B. B. Beyer, K. M. Fosen, J Biol Chem 275, 5163 (Feb. 18, 2000)).
# (§3) To examine the role of microtubules in LR asymmetry, 0.2-2 μM Nocodazole, and 0.3-30 nM Taxol were used. Nocodazole suppresses microtubule dynamics by destabilizing and disassembling microtubules (J. A. Cooper, J Cell Biol 105, 1473 (October, 1987)). Taxol inhibits the microtubule depolymerization and stabilizes microtubules (W. B. Derry, L. Wilson, M. A. Jordan, Biochemistry 34, 2203 (Feb. 21, 1995)).
# To examine the role of the actomyosin motor, cells were tested with […], […], and 0.5-10 […]. Y-27632 works as a selective inhibitor to prevent the phosphorylation of the myosin regulatory light chain (T. Ishizaki et al., Mol Pharmacol 57, 976 (May, 2000)). ML-7 acts as a selective inhibitor of the myosin light chain kinase (M. Isemura, T. Mita, K. Satoh, K. Narumi, M. Motomiya, Cell Biol Int Rep 15, 965 (October, 1991)). Blebbistatin forms a low actin affinity complex through binding to myosin heads, causing the inhibition of nonmuscle myosin II ATPase activity (M. Kovacs, J. Toth, C. Hetenyi, A. Malnasi-Csizmadia, J. R. Sellers, J Biol Chem 279, 35557 (Aug. 20, 2004)).
# (§4) High-resolution phase contrast images of live patterned cells were taken at a resolution of ˜0.645 μm/pixel, and analyzed using a custom-written code in MatLab (MathWorks, Natick, Mass.), based on the automated detection of intensity gradient and circular statistics (W. J. Karlon et al., Ann Biomed Eng 27, 712 (November-December, 1999)). In this algorithm, the intensity gradient was determined pixel by pixel with a Gaussian differential filter. In each sub-region of the image, the dominant local direction was determined using an accumulator scheme, in which the orientation of each pixel follows a von Mises distribution, a circular analogue of the linear normal distribution. Subsequently, the orientation in each sub-region was converted into an angle bias based on its deviation from the circumferential direction (see e.g., FIG. 2C). Mean angle and standard deviation of LR asymmetry were calculated for all sub-regions, using circular statistics (N. I. Fish, Statistical Analysis of Circular Data. (Cambridge University Press, Cambridge, UK, 1993)). […] The sub-region size was therefore set to 20 by 20 pixels (i.e., 13 by 13 μm).
# (§5) Cell chirality on ring patterns (i.e., clockwise or counterclockwise alignment) was determined from calculated biased angles in local regions with one sample test for the mean angle, analogous to the one sample t-test in linear statistics (N. I. Fish, Statistical Analysis of Circular Data. (Cambridge University Press, Cambridge, UK, 1993)).
# [2] = test system: hUVEC cells; test: Cell chirality (alignment) on micropatterned rings, drug treatment, hUVEC; type: cell-based, human; conditions: hUVEC on ring patterns, count of rings
# Procedure: as §1, §2, §3, §4, §5
smiles,measurement,setting,value
C[C@@H](N)[C@H]1CC[C@H](C(=O)Nc2ccncc2)CC1 [Y-27632],effect on left-right asymmetry,[1],did not affect left-right asymmetry
O=S(=O)(c1cccc2c(I)cccc12)N1CCCNCC1 [ML-7],effect on left-right asymmetry,[1],did not affect left-right asymmetry
CC(=O)O[C@H]1C(=O)[C@@]2(C)[C@H]([C@H](OC(=O)c3ccccc3)[C@]3(O)C[C@H](OC(=O)[C@H](O)[C@@H](NC(=O)c4ccccc4)c4ccccc4)C(C)=C1C3(C)C)[C@]1(OC(C)=O)CO[C@@H]1C[C@@H]2O [Taxol],CCW: counter-clockwise alignment,[2]; drug 0.3 nM,0
same,CW: clockwise alignment,[2]; drug 0.3 nM,8
same,N/S: not significantly biased to CW or CCW,[2]; drug 0.3 nM,0
same,CCW: counter-clockwise alignment,[2]; drug 1 nM,1
same,CW: clockwise alignment,[2]; drug 1 nM,34
same,N/S: not significantly biased to CW or CCW,[2]; drug 1 nM,4
same,CCW: counter-clockwise alignment,[2]; drug 3 nM,2
same,CW: clockwise alignment,[2]; drug 3 nM,7
same,N/S: not significantly biased to CW or CCW,[2]; drug 3 nM,9
same,CCW: counter-clockwise alignment,[2]; drug 10 nM,5
same,CW: clockwise alignment,[2]; drug 10 nM,10
same,N/S: not significantly biased to CW or CCW,[2]; drug 10 nM,11
same,CCW: counter-clockwise alignment,[2]; drug 30 nM,2
same,CW: clockwise alignment,[2]; drug 30 nM,4
same,N/S: not significantly biased to CW or CCW,[2]; drug 30 nM,7
same,effect on cell chirality,[1],did not change cell chirality
same,CCW: counter-clockwise alignment,[1]; drug 0.3 nM,24
same,CW: clockwise alignment,[1]; drug 0.3 nM,1
same,N/S: not significantly biased to CW or CCW,[1]; drug 0.3 nM,3
same,CCW: counter-clockwise alignment,[1]; drug 1 nM,20
same,CW: clockwise alignment,[1]; drug 1 nM,1
same,N/S: not significantly biased to CW or CCW,[1]; drug 1 nM,6
same,CCW: counter-clockwise alignment,[1]; drug 3 nM,31
same,CW: clockwise alignment,[1]; drug 3 nM,2
same,N/S: not significantly biased to CW or CCW,[1]; drug 3 nM,9
same,CCW: counter-clockwise alignment,[1]; drug 10 nM,17
same,CW: clockwise alignment,[1]; drug 10 nM,2
same,N/S: not significantly biased to CW or CCW,[1]; drug 10 nM,8
same,CCW: counter-clockwise alignment,[1]; drug 30 nM,16
same,CW: clockwise alignment,[1]; drug 30 nM,2
same,N/S: not significantly biased to CW or CCW,[1]; drug 30 nM,13
Cc1ccc2c(c1)C(=O)C1(O)CCN(c3ccccc3)C1=N2 (stereo not shown) [Blebbistatin],effect on left-right asymmetry,[1],did not affect left-right asymmetry
C/C1=C\[C@H](C)C[C@H](C)OC(=O)C[C@H](c2ccc(O)cc2)NC(=O)[C@@H](Cc2c(Br)[nH]c3ccccc23)N(C)C(=O)[C@H](C)NC(=O)[C@@H](C)C1 [Jasplakinolide],CCW: counter-clockwise alignment,[2]; drug 1 nM,1
same,CW: clockwise alignment,[2]; drug 1 nM,32
same,N/S: not significantly biased to CW or CCW,[2]; drug 1 nM,1
same,CCW: counter-clockwise alignment,[2]; drug 3 nM,2
same,CW: clockwise alignment,[2]; drug 3 nM,22
same,N/S: not significantly biased to CW or CCW,[2]; drug 3 nM,5
same,CCW: counter-clockwise alignment,[2]; drug 10 nM,5
same,CW: clockwise alignment,[2]; drug 10 nM,22
same,N/S: not significantly biased to CW or CCW,[2]; drug 10 nM,10
same,CCW: counter-clockwise alignment,[2]; drug 30 nM,0
same,CW: clockwise alignment,[2]; drug 30 nM,5
same,N/S: not significantly biased to CW or CCW,[2]; drug 30 nM,4
same,CCW: counter-clockwise alignment,[2]; drug 100 nM,0
same,CW: clockwise alignment,[2]; drug 100 nM,1
same,N/S: not significantly biased to CW or CCW,[2]; drug 100 nM,5
same,CCW: counter-clockwise alignment,[1]; drug 1 nM,34
same,CW: clockwise alignment,[1]; drug 1 nM,2
same,N/S: not significantly biased to CW or CCW,[1]; drug 1 nM,10
same,CCW: counter-clockwise alignment,[1]; drug 3 nM,18
same,CW: clockwise alignment,[1]; drug 3 nM,3
same,N/S: not significantly biased to CW or CCW,[1]; drug 3 nM,4
same,CCW: counter-clockwise alignment,[1]; drug 10 nM,14
same,CW: clockwise alignment,[1]; drug 10 nM,7
same,N/S: not significantly biased to CW or CCW,[1]; drug 10 nM,5
same,CCW: counter-clockwise alignment,[1]; drug 30 nM,0
same,CW: clockwise alignment,[1]; drug 30 nM,18
same,N/S: not significantly biased to CW or CCW,[1]; drug 30 nM,4
same,CCW: counter-clockwise alignment,[1]; drug 100 nM,0
same,CW: clockwise alignment,[1]; drug 100 nM,7
same,N/S: not significantly biased to CW or CCW,[1]; drug 100 nM,9
same,effect on chirality of C2C12 cells,[1],reversed the chirality of C2C12 cells from CCW into CW
C=C1[C@@H](C)[C@H]2[C@H](Cc3ccccc3)NC(=O)[C@]23[C@H](OC(C)=O)/C=C/[C@@](C)(O)C(=O)[C@@H](C)C/C=C/[C@H]3[C@@H]1O [Cytochalasin D],CCW: counter-clockwise alignment,[2]; drug 0.1 μg/mL,0
same,CW: clockwise alignment,[2]; drug 0.1 μg/mL,8
same,N/S: not significantly biased to CW or CCW,[2]; drug 0.1 μg/mL,12
same,CCW: counter-clockwise alignment,[2]; drug 0.2 μg/mL,0
same,CW: clockwise alignment,[2]; drug 0.2 μg/mL,10
same,N/S: not significantly biased to CW or CCW,[2]; drug 0.2 μg/mL,22
same,CCW: counter-clockwise alignment,[2]; drug 0.5 μg/mL,1
same,CW: clockwise alignment,[2]; drug 0.5 μg/mL,0
same,N/S: not significantly biased to CW or CCW,[2]; drug 0.5 μg/mL,6
same,CCW: counter-clockwise alignment,[1]; drug 0.05 μg/mL,8
same,CW: clockwise alignment,[1]; drug 0.05 μg/mL,9
same,N/S: not significantly biased to CW or CCW,[1]; drug 0.05 μg/mL,6
same,CCW: counter-clockwise alignment,[1]; drug 0.1 μg/mL,3
same,CW: clockwise alignment,[1]; drug 0.1 μg/mL,7
same,N/S: not significantly biased to CW or CCW,[1]; drug 0.1 μg/mL,10
same,CCW: counter-clockwise alignment,[1]; drug 0.2 μg/mL,5
same,CW: clockwise alignment,[1]; drug 0.2 μg/mL,21
same,N/S: not significantly biased to CW or CCW,[1]; drug 0.2 μg/mL,23
same,CCW: counter-clockwise alignment,[1]; drug 0.5 μg/mL,0
same,CW: clockwise alignment,[1]; drug 0.5 μg/mL,10
same,N/S: not significantly biased to CW or CCW,[1]; drug 0.5 μg/mL,14
same,CCW: counter-clockwise alignment,[1]; drug 1 μg/mL,1
same,CW: clockwise alignment,[1]; drug 1 μg/mL,8
same,N/S: not significantly biased to CW or CCW,[1]; drug 1 μg/mL,20
same,effect on chirality of C2C12 cells,[1],reversed the chirality of C2C12 cells from CCW into CW
COC(=O)Nc1nc2ccc(C(=O)c3cccs3)cc2[nH]1 [Nocodazole],CCW: counter-clockwise alignment,[2]; drug 200 nM,3
same,CW: clockwise alignment,[2]; drug 200 nM,25
same,N/S: not significantly biased to CW or CCW,[2]; drug 200 nM,76
same,CCW: counter-clockwise alignment,[2]; drug 500 nM,2
same,CW: clockwise alignment,[2]; drug 500 nM,14
same,N/S: not significantly biased to CW or CCW,[2]; drug 500 nM,27
same,CCW: counter-clockwise alignment,[2]; drug 1 μm,0
same,CW: clockwise alignment,[2]; drug 1 μm,3
same,N/S: not significantly biased to CW or CCW,[2]; drug 1 μm,4
same,CCW: counter-clockwise alignment,[2]; drug 2 μm,0
same,CW: clockwise alignment,[2]; drug 2 μm,1
same,N/S: not significantly biased to CW or CCW,[2]; drug 2 μm,7
same,effect on cell chirality,[1],did not change cell chirality
same,CCW: counter-clockwise alignment,[1]; drug 200 nM,57
same,CW: clockwise alignment,[1]; drug 200 nM,0
same,N/S: not significantly biased to CW or CCW,[1]; drug 200 nM,18
same,CCW: counter-clockwise alignment,[1]; drug 500 nM,35
same,CW: clockwise alignment,[1]; drug 500 nM,0
same,N/S: not significantly biased to CW or CCW,[1]; drug 500 nM,58
same,CCW: counter-clockwise alignment,[1]; drug 1 μM,18
same,CW: clockwise alignment,[1]; drug 1 μM,0
same,N/S: not significantly biased to CW or CCW,[1]; drug 1 μM,21
same,CCW: counter-clockwise alignment,[1]; drug 2 μM,1
same,CW: clockwise alignment,[1]; drug 2 μM,0
same,N/S: not significantly biased to CW or CCW,[1]; drug 2 μM,6
